This passage reports Ki results from paper PMC2692205 (Chembiochem : a European journal of chemical biology, 2008).

Each structure is given as a SMILES string.

The test addresses SaDUF62 (Salinispora arenicola, UniProt A8M783). The test can be described thus: biochemical.

Broadly, the Ki is the equilibrium dissociation constant of an inhibitor or competing ligand from its target.

Chain of SaDUF62 (A8M783 whole entry): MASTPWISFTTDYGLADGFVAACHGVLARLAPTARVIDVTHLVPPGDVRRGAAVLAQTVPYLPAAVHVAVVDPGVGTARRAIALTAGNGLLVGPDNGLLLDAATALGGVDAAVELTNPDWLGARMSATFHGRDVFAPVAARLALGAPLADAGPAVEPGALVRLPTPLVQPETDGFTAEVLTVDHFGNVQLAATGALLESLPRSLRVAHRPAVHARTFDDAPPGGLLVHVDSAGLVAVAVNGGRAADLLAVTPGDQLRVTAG

The molecule `Cl` [chloride] gave a Ki of 1000 µM.
